According to US20260250318A1, “COMPOSITIONS AND METHODS FOR CROSSING THE BLOOD BRAIN BARRIER” (VOYAGER THERAPEUTICS, INC., priority 2022, published 2026):

tested on: brain; experiment: Maturation of TTM-001 capsid, NGS enrichment in brain of CD-1 Outbred mice; format: in vivo; details: NGS fold-enrichment of TTM-001 matured AAV capsid variants in the brain of CD-1 Outbred mice; intravenous 1.0×10^12 VG/dose; 14 days in life; RNA; relative to non-matured TTM-001 control
Outline: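 Brain enrichment read by NGS after RNA extraction and RT-PCR, expressed as fold ratio over the matching parental capsid (TTM-001 or TTM-002). Libraries, mutated around loop IV positions 449/450–466, were injected intravenously (tail vein, 1.0×10^12 VG/dose) into three female CD-1 mice; brains harvested at 14 days.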

Point of comparison: “KTINGSSSPHWLAQNQQT (peptide inserted in AAV capsid)”, “Fold enrichment over TTM-001” value 2.490 fold. Against it:
- KTINGSGSPHSRKQNQQT — lower, 2.162 fold
- KTINGSGSPHSRLFNQQT — higher, 2.542 fold
- KTINGSGSPHSRLKNQQT — higher, 3.156 fold
- KTINGSGSPHSRLRNQQT — higher, 3.851 fold
- KTINGSGSPHSRPRNQQT — lower, 2.164 fold
- KTINGSGSPHSRRLNQQT — higher, 3.251 fold
- KTINGSGSPHSRRQNQQT — lower, 2.166 fold
- KTINGSGSPHSRRSNQQT — higher, 2.851 fold
- KTINGSGSPHSRRVNQQT — higher, 2.676 fold
- KTINGSGSPHSRSRNQQT — higher, 3.784 fold
- KTINGSGSPHSRTRNQQT — higher, 2.912 fold
- KTINGSGSPHSRTYNQQT — lower, 2.009 fold
- KTINGSGSPHSRVRNQQT — higher, 2.540 fold
- KTINGSGSPHSRWQNQQT — higher, 3.372 fold
- KTINGSGSPHSRYSNQQT — higher, 2.536 fold
- KTINGSGSPHSSCLNQQT — lower, 2.471 fold
- KTINGSGSPHSSCQNQQT — lower, 2.365 fold
- KTINGSGSPHSSKRNQQT — higher, 2.978 fold
- KTINGSGSPHSSLCNQQT — higher, 2.592 fold
- KTINGSGSPHSSLWNQQT — higher, 3.179 fold
- KTINGSGSPHSSRKNQQT — higher, 2.585 fold
- KTINGSGSPHSSRRNQQT — higher, 4.920 fold
- KTINGSGSPHSSWANQQT — lower, 2.264 fold
- KTINGSGSPHSTRLNQQT — higher, 2.860 fold
- KTINGSGSPHSTRPNQQT — higher, 2.598 fold
- KTINGSGSPHSTRQNQQT — lower, 2.212 fold
- KTINGSGSPHSTVWNQQT — lower, 2.196 fold
- KTINGSGSPHSTWLNQQT — higher, 3.583 fold
- KTINGSGSPHSTWTNQQT — lower, 2.307 fold
- KTINGSGSPHSVFLNQQT — lower, 2.069 fold
- KTINGSGSPHSVLFNQQT — lower, 2.194 fold
- KTINGSGSPHSVSWNQQT — lower, 2.223 fold
- KTINGSGSPHSVYLNQQT — higher, 4.426 fold
- KTINGSGSPHSVYRNQQT — lower, 2.432 fold
- KTINGSGSPHSWGSNQQT — lower, 2.473 fold
- KTINGSGSPHSWLQNQQT — higher, 2.665 fold
- KTINGSGSPHSWLSNQQT — higher, 3.495 fold
- KTINGSGSPHSWSLNQQT — higher, 2.523 fold
- KTINGSGSPHSWTQNQQT — lower, 2.084 fold
- KTINGSGSPHSYLINQQT — higher, 2.650 fold
- KTINGSGSPHSYLLNQQT — lower, 2.147 fold
- KTINGSGSPHSYLRNQQT — higher, 4.566 fold
- KTINGSGSPHSYRPNQQT — higher, 3.095 fold
- KTINGSGSPHSYSRNQQT — lower, 2.196 fold
- KTINGSGSPHSYVRNQQT — lower, 2.339 fold
- KTINGSGSPHTKWQNQQT — lower, 2.222 fold
- KTINGSGSPHTLFQNQQT — lower, 2.136 fold
- KTINGSGSPHTLWQNQQT — lower, 2.168 fold
- KTINGSGSPHTLYQNQQT — higher, 3.117 fold
- KTINGSGSPHTRRQNQQT — higher, 3.350 fold
- KTINGSGSPHTWLQNQQT — lower, 2.397 fold
- KTINGSGSPHTWSQNQQT — lower, 2.011 fold
- KTINGSGSPHTWTQNQQT — lower, 2.045 fold
- KTINGSGSPHVLFQNQQT — lower, 2.203 fold
- KTINGSGSPHVLWQNQQT — higher, 4.533 fold
- KTINGSGSPHVRRQNQQT — higher, 4.114 fold
- KTINGSGSPHVTWQNQQT — lower, 2.281 fold
- KTINGSGSPHWLAQNQQT — higher, 3.192 fold
- KTINGSGSPHWSLQNQQT — lower, 2.389 fold
- KTINGSGSPHWSVQNQQT — lower, 2.138 fold
- KTINGSGSPHWVSQNQQT — lower, 2.007 fold
- KTINGSGSPHYLLQNQQT — lower, 2.011 fold
- KTINGSGSPHYLVQNQQT — higher, 3.819 fold
- KTINGSGTPHSKAQNQQT — lower, 2.259 fold
- KTINGSHSPHRKAQNQQT — lower, 2.028 fold
- KTINGSISPHFVAQNQQT — lower, 2.006 fold
- KTINGSKSPHFKAQNQQT — higher, 3.285 fold
- KTINGSKSPHRKAQNQQT — higher, 2.696 fold
- KTINGSKSPHRLAQNQQT — higher, 3.073 fold
- KTINGSKSPHRTAQNQQT — higher, 2.950 fold
- KTINGSLSPHCLAQNQQT — higher, 2.577 fold
- KTINGSLSPHIYAQNQQT — higher, 2.536 fold
- KTINGSLSPHLCAQNQQT — higher, 2.775 fold
- KTINGSLSPHLFAQNQQT — lower, 2.285 fold
- KTINGSLSPHRRAQNQQT — higher, 2.717 fold
- KTINGSLSPHSCAQNQQT — higher, 3.268 fold
- KTINGSLSPHSWAQNQQT — higher, 2.885 fold
- KTINGSLSPHTWAQNQQT — lower, 2.115 fold
- KTINGSLSPHYMAQNQQT — lower, 2.015 fold
- KTINGSMSPHLYAQNQQT — lower, 2.354 fold
- KTINGSMSPHRKAQNQQT — lower, 2.251 fold
- KTINGSMSPHRRAQNQQT — lower, 2.028 fold
- KTINGSNSPHRKAQNQQT — lower, 2.218 fold
- KTINGSPSPHLFAQNQQT — lower, 2.238 fold
- KTINGSPSPHRKAQNQQT — lower, 2.430 fold
- KTINGSPSPHRRAQNQQT — higher, 3.216 fold
- KTINGSPSPHYLAQNQQT — lower, 2.391 fold
- KTINGSRSPHARAQNQQT (peptide inserted in AAV capsid) — higher, 2.745 fold
- KTINGSRSPHCSAQNQQT (peptide inserted in AAV capsid) — lower, 2.426 fold
- KTINGSRSPHFKAQNQQT (peptide inserted in AAV capsid) — lower, 2.277 fold
- KTINGSRSPHIRAQNQQT (peptide inserted in AAV capsid) — lower, 2.356 fold
- KTINGSRSPHLFAQNQQT (peptide inserted in AAV capsid) — higher, 3.601 fold
- KTINGSRSPHLRAQNQQT (peptide inserted in AAV capsid) — higher, 3.410 fold
- KTINGSRSPHRLAQNQQT (peptide inserted in AAV capsid) — higher, 2.698 fold
- KTINGSRSPHRPAQNQQT (peptide inserted in AAV capsid) — lower, 2.061 fold
- KTINGSRSPHRRAQNQQT (peptide inserted in AAV capsid) — higher, 2.615 fold
- KTINGSRSPHRSAQNQQT (peptide inserted in AAV capsid) — higher, 2.536 fold
- KTINGSRSPHSKAQNRQT (peptide inserted in AAV capsid) — lower, 2.155 fold
- KTINGSRSPHSWAQNQQT (peptide inserted in AAV capsid) — higher, 2.559 fold
- KTINGSRSPHTRAQNQQT (peptide inserted in AAV capsid) — higher, 3.989 fold
- KTINGSRSPHVRAQNQQT (peptide inserted in AAV capsid) — lower, 2.412 fold
- KTINGSRSPHYKAQNQQT (peptide inserted in AAV capsid) — higher, 2.879 fold
- KTINGSSSPHCLAQNQQT (peptide inserted in AAV capsid) — lower, 2.074 fold
- KTINGSSSPHCTAQNQQT (peptide inserted in AAV capsid) — higher, 5.607 fold
- KTINGSSSPHLCAQNQQT (peptide inserted in AAV capsid) — higher, 3.402 fold
- KTINGSSSPHLWAQNQQT (peptide inserted in AAV capsid) — higher, 2.605 fold
- KTINGSSSPHSWAQNQQT (peptide inserted in AAV capsid) — lower, 2.119 fold
- KTINGSSSPHWVAQNQQT (peptide inserted in AAV capsid) — higher, 3.277 fold
- KTINGSTSPHLFAQNQQT (peptide inserted in AAV capsid) — lower, 2.041 fold
- KTINGSTSPHRRAQNQQT (peptide inserted in AAV capsid) — higher, 3.089 fold
- KTINGSTSPHWSAQNQQT (peptide inserted in AAV capsid) — lower, 2.043 fold
- KTINGSTSPHYLAQNQQT (peptide inserted in AAV capsid) — higher, 2.665 fold
- KTINGSVSPHFMAQNQQT (peptide inserted in AAV capsid) — lower, 2.287 fold
- KTINGSVSPHLYAQNQQT (peptide inserted in AAV capsid) — lower, 2.028 fold
- KTINGSVSPHRRAQNQQT (peptide inserted in AAV capsid) — lower, 2.186 fold
- KTINGSVSPHSWAQNQQT (peptide inserted in AAV capsid) — higher, 2.562 fold
- KTINGSVSPHYLAQNQQT (peptide inserted in AAV capsid) — lower, 2.203 fold
- KTINGSVSPHYVAQNQQT (peptide inserted in AAV capsid) — lower, 2.022 fold
